Test results from PMC9354638, “Targeting p21-activated kinase 4 (PAK4) with pyrazolo[3,4-d]pyrimidine derivative SPA7012 attenuates hepatic ischaemia-reperfusion injury in mice” (Journal of Enzyme Inhibition and Medicinal Chemistry, 2022).
Entries after “also recorded” stand apart in the source; their conditions may differ.

System: C57BL/6 male mice with hepatic I/R injury
Experiment: Model of partial hepatic I/R injury in mice
Format: in vivo, mouse
Method: Pathogen-free 8 to 10-week old C57BL/6 male mice (Orient Bio, Seoul, Korea) were kept under a 12-h light/dark cycle with controlled humidity of 50% at 22 °C, and had free access to food and water. Hepatic I/R injury was created using the following method.[15] Mice were anaesthetised with ketamine (100 mg/kg) and xylazine (10 mg/kg) by intraperitoneal injection. A midline incision was performed, and an atraumatic clip was placed across the portal vein, hepatic artery, and bile duct just above the right branch. Blood flow was interrupted to the left lateral and median lobes, which represent approximately 70% of the total blood supply to the liver. The liver was kept moist with a gauze soaked in saline, and body temperature was maintained at 37 °C with a warm blanket throughout ischaemia. After 60 min of partial hepatic ischaemia, the clip was removed to initiate reperfusion. The sham mice underwent the same operation without vascular occlusion. After the desired time period of reperfusion, the mice were euthanised by exsanguination under anaesthesia and serum samples were collected. The left lateral and median lobes of the liver were collected and stored at −80 °C until further analysis, or were immediately fixed in 10% formalin. All animal experiments were performed in accordance with the Guide for the Care and Use of Laboratory Animals published by the US National Institutes of Health (NIH Publication No. 85–23, revised 2011). The study protocol was approved by the Institutional Animal Care and Use Committee of Jeonbuk National University (permit number: JBNU-2019–00122).
Alanine aminotransferase (ALT) and aspartate aminotransferase (AST) in serum (Asan Pharm, Seoul, Korea), glutathione (GSH, Arbour Assays, Ann Arbour, MI, USA), malondialdehyde (MDA, ab118970, Abcam, Cambridge, UK) in liver tissues, and lactate dehydrogenase (LDH, Biovision, Milpitas, CA, USA) in culture medium were analysed using specific kits. Serum levels of IL-1β, IL-6, TNF-α, and CCL-2 were detected using ELISA kits (all from Invitrogen).
Total RNA was extracted from frozen liver tissues or primary hepatocytes using TRIzol reagent (Invitrogen). RNA was treated with isopropanol, dried using 70% ethanol, and dissolved in diethyl pyrocarbonate-treated distilled water. First-strand cDNA was generated using the random hexamer primer provided in the first-strand cDNA synthesis kit (Applied Biosystems, Foster City, CA, USA). Specific primers were designed using PrimerBank (https://pga.mgh.harvard.edu/primerbank, Table 1). qPCR reactions were performed in a final volume of 10μ L containing 10 ng reverse-transcribed total RNA, 200 nM forward and reverse primers, and PCR master mixture. qPCR was performed in 384-well plates using an ABI Prism™ 7900HT Sequence Detection System (Applied Biosystems).
Nuclear and cytoplasmic fractions were prepared using the NE-PER Nuclear and Cytoplasmic Extraction kit (Thermo Fisher Scientific, Waltham, MA, USA). Tissue homogenates or cell lysates (15 μg) were separated by 6–14% SDS-PAGE and transferred to PVDF membranes. After blocking with 5% skim milk, blots were probed with primary antibodies against: PAK4 (G222), p-PAK4 (S474), p-IKKβ (S176/180), p-IκBα (S32), p-p65 (S536), cleaved caspase-3 (Asp175), Bax (Cell Signalling Technology, Beverly, MA, USA), GAPDH (A531), lamin B1(L75), Bcl2(P65), NQO1 (F252) (Bioworld Technology, St Louis Park, MN, USA), NF-κB p65 (C-20), IKBα (H-4), IKKβ (10A9B6) (Santa Cruz Biotechnology, Dallas, TX, USA), Nrf2 (Proteintech, Rosemont, IL, USA), HO-1 (Enzo Life Sciences, Farmingdale, New York, USA), and p-Thr (Merck KGaA, Darmstadt, Germany). For co-immunoprecipitations, 600 μg protein was incubated with anti-Nrf2 antibodies (Proteintech, Sankt Leon-Rot, Germany) overnight at 4 °C followed by protein G agarose for 2 h at 4 °C. Blots were probed with antibodies against PAK4, Nrf2, or p-Thr. Immunoreactive bands were detected with a Las-4000 imager (GE Healthcare Life Science, Pittsburgh, PA, USA). […]

[1] = 50 mg/kg intraperitoneal before and during I/R, 1 h ischaemia, 6 h or 24 h reperfusion, vs I/R group

With `Cc1nn(-c2cccc(C#CC3(O)CCCCC3)c2)c2ncnc(N)c12` [Compound 14b, 3-(4-Amino-3-methylpyrazolo[3,4-d]pyrimidin-1-yl)phenylethynylcyclohexan-1-ol] the “Serum ALT level” value [1] was “significantly decreased”, the “Serum AST level” value [1] was “significantly decreased” and the “Inflammatory cell infiltration (F4/80-positive macrophages, Ly6G-positive neutrophils) in liver” value (50 mg/kg, 24 h after reperfusion, listed as SPA7012) was “decreased; also recorded: drastic reduction”. The “Cytokine production (TNF-α, IL-1β, IL-6, CCL-2; serum protein and liver mRNA)” value (50 mg/kg, I/R injured mice) was “decreased”, the “Phosphorylation levels of IKKβ and p65 in liver” value (50 mg/kg, Western blotting) was “substantially decreased” and the “Protein levels of IκBα in liver” value (50 mg/kg, Western blotting) was “increased”. The “Nuclear level of Nrf2 in I/R injured liver tissues” value (50 mg/kg, Western blotting of nuclear extracts, listed as SPA7012) was “considerably increased”, the “4-HNE-positive cells in liver tissues” value (50 mg/kg, vs I/R group) was “significantly lower” and the “Area of necrosis in liver (H&E)” value (50 mg/kg, vs I/R group) was “significantly smaller”. The “Hepatic levels of GSH” value (50 mg/kg, vs I/R group) was “significantly higher”, the MDA level (50 mg/kg, vs I/R group) was “significantly lower” and the “TUNEL-positive apoptotic cells in liver tissues” value (50 mg/kg, vs I/R group) was “significant reduction”. The “Total- and phospho-protein levels of PPARγ, PTEN, Akt, and GSK-3β” value (following SPA7012 treatment, data not shown) was “no changes”.
